Settings: 303.15 K, Liquid, Vibrating tube method

CCCCC(=O)OCC(COC(=O)CCCC)(COC(=O)CCCC)COC(=O)CCCC [pentaerythritol tetrapentanoate]
Settings | mass density [kg/m3]
24416 kPa | 1025.8
24455 kPa | 1025.9
24486 kPa | 1025.8
24518 kPa | 1026
24556 kPa | 1025.8
24588 kPa | 1025.8
24618 kPa | 1026.1
24648 kPa | 1025.9
24685 kPa | 1026.1
24717 kPa | 1026
24757 kPa | 1026
24790 kPa | 1025.9
24823 kPa | 1026.1
24863 kPa | 1026.1
24893 kPa | 1026.2
24922 kPa | 1026
24956 kPa | 1026.1
24986 kPa | 1026.1
25015 kPa | 1026.2
25045 kPa | 1026.1
25080 kPa | 1026.2
25109 kPa | 1026.2
25144 kPa | 1026.2
25174 kPa | 1026.2
25203 kPa | 1026.3
25233 kPa | 1026.4
25269 kPa | 1026.3
25298 kPa | 1026.2
25328 kPa | 1026.3
25364 kPa | 1026.3
25394 kPa | 1026.4
25430 kPa | 1026.2
25460 kPa | 1026.4
25490 kPa | 1026.3
25527 kPa | 1026.3
25558 kPa | 1026.5
25588 kPa | 1026.4
25624 kPa | 1026.5
25654 kPa | 1026.6
25686 kPa | 1026.6
25753 kPa | 1026.5
25785 kPa | 1026.6
25816 kPa | 1026.6
25854 kPa | 1026.6
25885 kPa | 1026.7
25916 kPa | 1026.7
25954 kPa | 1026.8
25985 kPa | 1026.7
26023 kPa | 1026.6
26054 kPa | 1026.7
26086 kPa | 1026.8
26119 kPa | 1026.7
26157 kPa | 1026.8
26190 kPa | 1026.8
26222 kPa | 1027
26261 kPa | 1026.9
26294 kPa | 1026.9
26326 kPa | 1027
26365 kPa | 1027
26398 kPa | 1026.9
26431 kPa | 1027
26469 kPa | 1027
26503 kPa | 1027
26536 kPa | 1027
26575 kPa | 1027.2
26609 kPa | 1027
26642 kPa | 1027
26686 kPa | 1027.2
26712 kPa | 1027.1
26753 kPa | 1027.2
26787 kPa | 1027.1
26822 kPa | 1027.2
26863 kPa | 1027.3
26897 kPa | 1027.2
26931 kPa | 1027.2
26966 kPa | 1027.3
27007 kPa | 1027.3
27042 kPa | 1027.2
27077 kPa | 1027.3
27119 kPa | 1027.3
27156 kPa | 1027.3
27191 kPa | 1027.3
27233 kPa | 1027.5
27268 kPa | 1027.3
27303 kPa | 1027.5
27338 kPa | 1027.4
27381 kPa | 1027.4
27416 kPa | 1027.6
27452 kPa | 1027.5
27495 kPa | 1027.6
27531 kPa | 1027.5
27574 kPa | 1027.6
27611 kPa | 1027.7
27647 kPa | 1027.7
27683 kPa | 1027.6
27727 kPa | 1027.6
27763 kPa | 1027.7
27800 kPa | 1027.6
27844 kPa | 1027.8
27881 kPa | 1027.8
27919 kPa | 1027.7
27964 kPa | 1027.8
28003 kPa | 1027.8
28041 kPa | 1027.8
28089 kPa | 1027.9
28128 kPa | 1027.9
28160 kPa | 1027.9
28193 kPa | 1027.8
28221 kPa | 1027.9
28249 kPa | 1028
28282 kPa | 1028
28310 kPa | 1028
28338 kPa | 1028
28366 kPa | 1028
28399 kPa | 1028
28427 kPa | 1027.9
28461 kPa | 1028.1
28489 kPa | 1028
28518 kPa | 1028.1
28546 kPa | 1028.1
28580 kPa | 1028
28609 kPa | 1028.1
28638 kPa | 1028.2
28672 kPa | 1028.1
28700 kPa | 1028.2
28729 kPa | 1028.2
28764 kPa | 1028.3
28792 kPa | 1028.2
28821 kPa | 1028.3
28856 kPa | 1028.3
28885 kPa | 1028.5
28915 kPa | 1028.3
28950 kPa | 1028.4
28978 kPa | 1028.3
29008 kPa | 1028.4
29043 kPa | 1028.4
29072 kPa | 1028.4
29102 kPa | 1028.5
29132 kPa | 1028.5
29168 kPa | 1028.4
29198 kPa | 1028.4
29228 kPa | 1028.5
29264 kPa | 1028.6
29294 kPa | 1028.6
29325 kPa | 1028.5
29356 kPa | 1028.5
29392 kPa | 1028.5
29422 kPa | 1028.6
29453 kPa | 1028.6
29483 kPa | 1028.6
29520 kPa | 1028.7
29550 kPa | 1028.7
29587 kPa | 1028.7
29617 kPa | 1028.6
29648 kPa | 1028.8
29684 kPa | 1028.7
29716 kPa | 1028.7
29749 kPa | 1028.8
29779 kPa | 1028.8
29810 kPa | 1028.8

— the NIST ThermoML archive (doi:10.1021/je060271a)
